Measured values published in ChEMBL document CHEMBL4130444, “1,4-Naphthoquinones as inhibitors of Itch, a HECT domain-E3 ligase, and tumor growth suppressors in multiple myeloma” (Eur J Med Chem, 2017).

Legend:
HCT-116 = test: Antiproliferative activity against human HCT116 cells incubated for 48 hrs by SRB assay; format: functional; conditions: HCT-116, 48 h
MDA-MB-231 = test: Antiproliferative activity against human MDA-MB-231 cells incubated for 48 hrs by SRB assay; format: functional; conditions: MDA-MB-231, 48 h

Row | SMILES | GI50 (HCT-116) | GI50 (MDA-MB-231)
1 | O=C(Nc1ccc2[nH]ncc2c1)c1ccc(CNC2=C(Cl)C(=O)c3ccccc3C2=O)cc1 | > 10 µM | > 10 µM
2 | O=C(Nc1cnc2ccccc2c1)c1ccc(CNC2=C(Cl)C(=O)c3ccccc3C2=O)cc1 | > 10 µM | > 10 µM
3 | Nc1ccn(C(=O)c2ccc(CNC3=C(Cl)C(=O)c4ccccc4C3=O)cc2)n1 | > 10 µM | > 10 µM
4 | O=C(Nc1nccs1)c1ccc(CNC2=C(Cl)C(=O)c3ccccc3C2=O)cc1 | > 10 µM | > 10 µM
